# Literature values as cited in US20230000073A1, “A COMPOSITION FOR ACTIVATING PLANT'S NATURAL DEFENSE MECHANISMS TO EXTEND THE SHELF LIFE AND METHODS THEREOF” (GREENPOD LABS PRIVATE LIMITED, priority 2019, published 2023).
# Entries after “also recorded” stand apart in the source; their conditions may differ. Read-outs that look alike come from different tables or passages of the source.
smiles,measurement,setting,value
"O=C(O)c1ccccc1O [SA, 2-hydroxybenzoic acid]",Reported results (effects of SA),Strawberry,"Decay, Ripenings, weight loss reduction"
same,Reported results (effects of SA),Kiwifruit,"Inhibition of ethylene production, ripening &; also recorded: decay control"
same,Reported results (effects of SA),Banana,"Decrease in fruit softening pulp/peel ratio, reducing sugar content,"
same,Reported results (effects of SA),Sweet cherry,direct antifungal activity
same,Reported results (effects of SA),Tomato,"Development of red color, regulation of ACS genes expression"
same,Reported results (effects of SA),Orange,"SOD, GR, APX & DHAR activity & ASA/DHASA"
same,Reported results (effects of SA),Apple,"Decreased ethylene, LOX activity, MDA content, DI,"
same,Reported results (effects of SA),Apple; combined with microbial antagonist,Enchaned the biological efficacy of antagonist
same,Reported results (effects of SA),Watermelon,"Increase in GPX, APX, CAT, SOD & GR activity,"
same,Reported results (effects of SA),Fresh-cut Chestnut,"Delayed discoloration, maintained edible quality"
